SMILES strings stand for the structures.

Here are results for 1 molecule from article PMC6934184, “Selective DNA-PKcs inhibition extends the therapeutic index of localized radiotherapy and chemotherapy” (The Journal of Clinical Investigation, 2019).

This test addresses T1, CDK2/cyclin O (Homo sapiens, UniProt P24941).
T1 construct: purchased Thermo Fisher Scientific (Life Technologies) SelectScreen
Put plainly: SelectScreen LanthaScreen. The test is classed as binding. The note with it: 1 µM. A digest of the protocol: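 SelectScreen broad panel; activity (Z'LYTE, Adapta) plus binding formats. ATP: Km app for CSF1R Z'LYTE; 10 for CAMK1 Adapta. Readout = % per kinase.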

Consider `CN(C(=O)CN1CCOCC1)c1ccc2sc3c(-c4cccc5c(=O)cc(N6CC7CCC(C6)O7)oc45)cccc3c2c1` [NU5455], for which the “% displacement” value was 0.9%.
